Data from patent US12643867B2, “Compositions and uses thereof” (University of Virginia Patent Foundation, priority 2017, dated 2026).
Where two headings read alike, the source gives them in different places.

Target: T1, recombinant DGKα (Rattus norvegicus, UniProt P51556)
T1 construct: expressed in transfected cells; host or cells: HEK293T (SILAC HEK293T for LC-MS)
Assay: Gel-based ATP acyl phosphate chemical proteomic assay
Type: binding
Conditions: for blockade of DGKα ATP probe labeling: compounds 100 μM (ATP 1 mM; RF001 at indicated concentrations), probe 10 μM
Experimental: Cell pellets were resuspended in kinase buffer (Dulbecco's PBS (DPBS, Hyclone), 20 mM MgCl2, EDTA-free protease inhibitors (Pierce)) and then lysed by sonication (3×1 sec pulse, 20% amplitude). The cell lysates were then subjected to centrifugation (100,000×g, 45 min at 4° C.) to isolate the cytosolic fraction in the supernatant and the membrane fraction as a pellet. The membrane pellet was resuspended in kinase buffer by sonication. […] The only exception was experiments involving DGKE; recombinant DGKE protein was most prominently expressed in the membrane fraction and so this fraction was utilized to study DGKE enzyme (see FIG. 8). Protein concentrations were measured using the Bio-Rad DC protein assay. Samples were stored at −80° C. until use.
Proteome concentration was adjusted to 2 mg/mL in kinase buffer. Proteomes were first pre-treated with compound (0.6 μL, 50× stock in DMSO) mixed with gentle flicking, and incubated for 30 min at 25° C. in a microfuge tube (30 μL reaction volume). […] Reactions were then quenched with 10 AL of 4×SDS-PAGE loading buffer. Protein samples (15 μL) were loaded onto 4-20% TGX Stain-Free Protein Midi Gel and resolved by SDS-PAGE at 150V for 55 min. Proteins were then transferred to a nitrocellulose blot by Bio-Rad Trans-Blot Turbo Transfer System (25V. 10 min) to enhance sensitivity. The nitrocellulose blot was then incubated in blocking solution (30 mL, 3% BSA in TBS-T) for 1 h at 25° C. with gentle shaking. The blot was then transferred immediately to antibody solution (30 mL, 5% BSA in ddH2O with 0.1% Tween20 and 1:3000 Streptavidin DyLight 550) and incubated for 2 h at 25° C. with gentle shaking. The blot was then rinsed 5 times for 5 min in TBS-T. and then transferred into ddH2O. The blot was then imaged by in-blot fluorescence scanning on a ChemiDoc MP Imaging System. Fluorescence intensity signals were normalized to total lane protein using the Bio-rad Stain Free imaging (Posch et al., 2013).
The percentage of enzyme activity remaining was determined by comparing integrated band intensities or luminescence of inhibitor—with DMSO-treated samples for gel-based chemical proteomic or ADP-glo assays, respectively. For both chemical proteomic and ADP-glo methods, nonlinear regression analysis was used to determine the IC50 values from a dose-response curve generated using GraphPad Prism. Data are shown as mean±s.e.m. Determination of significance was performed by one-way ANOVA. All statistical analyses were performed using GraphPad Prism.

T1 sequence (P51556 whole entry): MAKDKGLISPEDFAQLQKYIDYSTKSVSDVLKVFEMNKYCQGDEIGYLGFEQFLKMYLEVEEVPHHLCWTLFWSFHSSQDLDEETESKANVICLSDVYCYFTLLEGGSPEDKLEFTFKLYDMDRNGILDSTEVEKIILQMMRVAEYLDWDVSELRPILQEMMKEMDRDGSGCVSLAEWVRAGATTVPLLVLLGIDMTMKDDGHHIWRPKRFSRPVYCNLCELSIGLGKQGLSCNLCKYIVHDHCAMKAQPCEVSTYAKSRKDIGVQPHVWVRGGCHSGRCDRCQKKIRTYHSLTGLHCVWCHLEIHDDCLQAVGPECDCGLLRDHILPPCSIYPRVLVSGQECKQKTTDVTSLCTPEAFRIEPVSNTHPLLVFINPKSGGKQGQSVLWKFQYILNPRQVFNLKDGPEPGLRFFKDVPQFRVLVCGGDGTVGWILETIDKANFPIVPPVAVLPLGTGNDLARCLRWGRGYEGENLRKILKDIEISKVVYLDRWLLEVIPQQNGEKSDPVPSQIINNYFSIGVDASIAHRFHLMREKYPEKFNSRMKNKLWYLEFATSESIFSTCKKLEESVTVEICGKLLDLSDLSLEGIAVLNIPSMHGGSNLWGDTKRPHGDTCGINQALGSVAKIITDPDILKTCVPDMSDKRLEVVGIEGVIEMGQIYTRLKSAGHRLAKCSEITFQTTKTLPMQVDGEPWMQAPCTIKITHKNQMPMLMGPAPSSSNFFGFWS

Row | SMILES | blockade of DGKα ATP probe labeling (30 min) | inhibition at 1000 µM (1 mM, read-out: inhibition of DGKα activity in the probe-binding assay) | IC50 (IC50, blockade of ATP probe labeling of DGKα (gel-based), 10 μM ATP probe, 30 min) | IC50 (read-out: 95% confidence intervals for IC50 values, gel-based assay)
1 | O=C(c1ccc(F)cc1)C1CCN(CCn2c(=O)[nH]c3ccccc3c2=O)CC1 [Ketanserin] | not ketanserin |  |  | 
2 | Fc1ccc(C(=C2CCNCC2)c2ccc(F)cc2)cc1 [RF001, 4-(Bis(4-fluorophenyl)methylene) piperidine] | blocked probe labeling in a concentration-dependent manner | > 80% |  | 
3 | Cc1nc2sccn2c(=O)c1CCN1CCC(=C(c2ccc(F)cc2)c2ccc(F)cc2)CC1 [Ritanserin] | blocked probe labeling |  | 57 µM | 17 to 192 µM
